Patent publication US20230242585A1, “IMMUNOMODULATORS” (Bristol-Myers Squibb Company, priority 2020, published 2023)
Starred links: 1 amine or outer side, 2 acyl side, 3 side chain; linkers in the order of their positions; H or OH if unused. Positions of bridges follow the written chain, without caps; N, C: chain ends. Non-standard residues stand in square brackets, D forms with d. Residues, ends and D or L forms follow the SMILES beside them. X53 = O=C([C@H](CCNC[C@H](O)[C@@H](O)[C@H](O)C(O)CO[C@H]1O[C@H](CO)[C@H](O)[C@H](O)[C@H]1O)N[*:1])[*:2]; X39 = O=C([C@H](CNC[C@H](O)[C@@H](O)[C@H](O)C(O)CO[C@H]1O[C@H](CO)[C@H](O)[C@H](O)[C@H]1O)N[*:1])[*:2]; X42 = O=C([C@H](CNC[C@@H](O)C(O)[C@H](O[C@@H]1OC(CO)[C@@H](O)C(O)C1O)C(O)CO)N[*:1])[*:2]; X9 = O=C([C@H](CCNC[C@@H](O)[C@@H](O)[C@@H](O)[C@H](O)CO)N[*:1])[*:2]; X8 = O=C([C@H](CNC[C@@H](O)[C@@H](O)[C@@H](O)[C@H](O)CO)N[*:1])[*:2]; X3 = O=C([C@H](CNC[C@@H](O)[C@@H](O)[C@H](O)[C@H](O)CO)N[*:1])[*:2]; X58 = O=C([C@H](CNC[C@H](O)[C@@H](O)[C@H](O)[C@H](O)CO)N[*:1])[*:2]; Trp(1-CH2COOH) = N[C@@H](Cc1cn(CC(=O)O)c2ccccc12)C(=O)O; X21 = O=C([C@H](CCNCc1c2ccccc2nc2ccccc12)N[*:1])[*:2]; X10 = O=C([C@H](CNCc1c2ccccc2nc2ccccc12)N[*:1])[*:2]; Hyp = O=C(O)[C@@H]1C[C@@H](O)CN1; NMeNle = CCCC[C@H](NC)C(=O)O; NMeA = CN[C@@H](C)C(=O)O; Dab = NCC[C@H](N)C(=O)O

Target: T1, PD-1/PD-L1 (Homo sapiens, UniProt Q9NZQ7)
T1 construct: TVMV protease site (linker) (C); made in house; host or cells: HEK293T cells
T1 sequence (Q9NZQ7 18-239): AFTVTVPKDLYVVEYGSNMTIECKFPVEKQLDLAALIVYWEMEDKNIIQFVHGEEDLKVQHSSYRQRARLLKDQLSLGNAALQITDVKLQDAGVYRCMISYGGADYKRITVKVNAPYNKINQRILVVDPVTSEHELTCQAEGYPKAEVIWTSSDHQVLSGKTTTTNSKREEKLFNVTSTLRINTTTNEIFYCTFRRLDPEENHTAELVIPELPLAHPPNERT
Experiment: PD-1/PD-L1 Homogenous Time-Resolved Fluorescence (HTRF) binding assay
Conditions: PD-L1-His 10 nM, PD-1-Ig 20 nM
Procedure, shortened: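 Compounds preincubated 15 min with PD-L1-His (residues 18-239, 10 nM) in dPBS with 0.1% BSA, 0.05% Tween-20, then PD-1-Ig (residues 25-167, 20 nM) for 15 min. Eu-cryptate anti-Ig (1 nM) and APC anti-His (20 nM) equilibrated 30 min; 665/620 nm ratio read, IC50 derived.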

Row | IC50 | Compound
1 | 7.2 nM | CCCC[C@H]1C(=O)N(C)[C@@H](CCCC)C(=O)N[C@@H](CC(C)C)C(=O)N[C@H](C(=O)NCC(N)=O)CSCC(=O)N[C@@H](Cc2ccc(O)cc2)C(=O)N(C)[C@@H](C)C(=O)N[C@@H](CC(N)=O)C(=O)N2CCC[C@H]2C(=O)N[C@@H](CNC[C@H](O)[C@@H](O)[C@H](O)C(O)CO[C@H]2O[C@H](CO)[C@H](O)[C@H](O)[C@H]2O)C(=O)N[C@@H](CC(C)C)C(=O)N2C[C@H](O)C[C@H]2C(=O)N[C@@H](Cc2c[nH]c3ccccc23)C(=O)N[C@@H](CCNC[C@H](O)[C@@H](O)[C@H](O)C(O)CO[C@H]2O[C@H](CO)[C@H](O)[C@H](O)[C@H]2O)C(=O)N[C@@H](Cc2cn(CC(=O)O)c3ccccc23)C(=O)N1C (stereo partly drawn) [Example 2041] ({CH2CO}-Y[NMeA]NP[X39]L[Hyp]W[X53][Trp(1-CH2COOH)][NMeNle][NMeNle]LCG-NH2; thioether N-14)
2 | 4.9 nM | CCCC[C@H]1C(=O)N(C)[C@@H](CCCC)C(=O)N[C@@H](CC(C)C)C(=O)N[C@H](C(=O)NCC(N)=O)CSCC(=O)N[C@@H](Cc2ccc(O)cc2)C(=O)N(C)[C@@H](C)C(=O)N[C@@H](CC(N)=O)C(=O)N2CCC[C@H]2C(=O)N[C@@H](CNC[C@@H](O)[C@@H](O)[C@@H](O)[C@H](O)CO)C(=O)N[C@@H](CC(C)C)C(=O)N2C[C@H](O)C[C@H]2C(=O)N[C@@H](Cc2c[nH]c3ccccc23)C(=O)N[C@@H](CCNC[C@@H](O)[C@@H](O)[C@@H](O)[C@H](O)CO)C(=O)N[C@@H](Cc2cn(CC(=O)O)c3ccccc23)C(=O)N1C [Example 2036] ({CH2CO}-Y[NMeA]NP[X8]L[Hyp]W[X9][Trp(1-CH2COOH)][NMeNle][NMeNle]LCG-NH2; thioether N-14)
3 | 1.6 nM | CCCC[C@H]1C(=O)N(C)[C@@H](CCCC)C(=O)N[C@@H](CC(C)C)C(=O)N[C@H](C(=O)NCC(N)=O)CSCC(=O)N[C@@H](Cc2ccc(O)cc2)C(=O)N(C)[C@@H](C)C(=O)N[C@@H](CC(N)=O)C(=O)N2CCC[C@H]2C(=O)N[C@@H](CNC[C@@H](O)[C@@H](O)[C@H](O)[C@H](O)CO)C(=O)N[C@@H](CC(C)C)C(=O)N2C[C@H](O)C[C@H]2C(=O)N[C@@H](Cc2c[nH]c3ccccc23)C(=O)N[C@@H](CCN)C(=O)N[C@@H](Cc2cn(CC(=O)O)c3ccccc23)C(=O)N1C [Example 2024] ({CH2CO}-Y[NMeA]NP[X3]L[Hyp]W[Dab][Trp(1-CH2COOH)][NMeNle][NMeNle]LCG-NH2; thioether N-14)
4 | 1.8 nM | CCCC[C@H]1C(=O)N(C)[C@@H](CCCC)C(=O)N[C@@H](CC(C)C)C(=O)N[C@H](C(=O)NCC(N)=O)CSCC(=O)N[C@@H](Cc2ccc(O)cc2)C(=O)N(C)[C@@H](C)C(=O)N[C@@H](CC(N)=O)C(=O)N2CCC[C@H]2C(=O)N[C@@H](CNC[C@H](O)[C@@H](O)[C@H](O)[C@H](O)CO)C(=O)N[C@@H](CC(C)C)C(=O)N2C[C@H](O)C[C@H]2C(=O)N[C@@H](Cc2c[nH]c3ccccc23)C(=O)N[C@@H](CCN)C(=O)N[C@@H](Cc2cn(CC(=O)O)c3ccccc23)C(=O)N1C [Example 2015] ({CH2CO}-Y[NMeA]NP[X58]L[Hyp]W[Dab][Trp(1-CH2COOH)][NMeNle][NMeNle]LCG-NH2; thioether N-14)
5 | 9.9 nM | CCCC[C@H]1C(=O)N(C)[C@@H](CCCC)C(=O)N[C@@H](CC(C)C)C(=O)N[C@H](C(=O)NCC(N)=O)CSCC(=O)N[C@@H](Cc2ccc(O)cc2)C(=O)N(C)[C@@H](C)C(=O)N[C@@H](CC(N)=O)C(=O)N2CCC[C@H]2C(=O)N[C@@H](CNCc2c3ccccc3nc3ccccc23)C(=O)N[C@@H](CC(C)C)C(=O)N2C[C@H](O)C[C@H]2C(=O)N[C@@H](Cc2c[nH]c3ccccc23)C(=O)N[C@@H](CCNCc2c3ccccc3nc3ccccc23)C(=O)N[C@@H](Cc2cn(CC(=O)O)c3ccccc23)C(=O)N1C [Example 1020] ({CH2CO}-Y[NMeA]NP[X10]L[Hyp]W[X21][Trp(1-CH2COOH)][NMeNle][NMeNle]LCG-NH2; thioether N-14)
6 | 5.2 nM | CCCC[C@H]1C(=O)N(C)[C@@H](CCCC)C(=O)N[C@@H](CC(C)C)C(=O)N[C@H](C(=O)NCC(N)=O)CSCC(=O)N[C@@H](Cc2ccc(O)cc2)C(=O)N(C)[C@@H](C)C(=O)N[C@@H](CC(N)=O)C(=O)N2CCC[C@H]2C(=O)N[C@@H](CNC[C@@H](O)C(O)[C@H](O[C@@H]2OC(CO)[C@@H](O)C(O)C2O)C(O)CO)C(=O)N[C@@H](CC(C)C)C(=O)N2C[C@H](O)C[C@H]2C(=O)N[C@@H](Cc2c[nH]c3ccccc23)C(=O)N[C@@H](CCN)C(=O)N[C@@H](Cc2cn(CC(=O)O)c3ccccc23)C(=O)N1C (stereo partly drawn) [Example 2039] ({CH2CO}-Y[NMeA]NP[X42]L[Hyp]W[Dab][Trp(1-CH2COOH)][NMeNle][NMeNle]LCG-NH2; thioether N-14)
